Patent US4116972A, “Anti-inflammatory 1-oxo-isoindoline derivatives and processes for their preparation” (Fuji Chemical Industry Company Limited, priority 1975, dated 1978)
Read-outs that look alike come from different tables or passages of the source.

Legend:
[1] = tested on: male rats of the Wistar strain; assay: Analgesic effect, Pressure Method; type: in vivo, rat (male
Procedure: (§1) The rats were tested in groups of six. Only those animals having a normal pain threshold in both hind legs were selected for the tests. The compound to be tested was suspended in 0.3% carboxymethylcellulose aqueous solution and administered orally. […] The analgesic activity was tested by the Pressure Method [Brit. J. […] Int.

stomach [2] = assay: Effect on gastric ulcer, first method (single oral administration); type: in vivo, rat (male, Donryu strain); settings: 18 hours
Procedure: (§2) Each compound to be tested was suspended in a 0.3% solution of carboxymethylcellulose in physiological saline and administered in an amount of 1 ml per 200 g body weight of the rat. Determination of the occurrence of gastric inflammation and ulceration was calculated by adding the sizes of ulcerated regions (mm^2) of each rat observed within a lattice (width 1 cm, divided into 10 equal parts) of a stereomicroscope. The determination was made on the stomach removed after sacrifice of the animal and then fixed for 10 minutes with 1% formalin.
In a first method, the compound to be tested was administered orally after 24 hours starvation and then, after a further 18 hours, the animal was sacrificed, under ether anaesthesia.

stomach [3] = assay: Effect on gastric ulcer, second method (repeated oral administration); type: in vivo, rat (male, Donryu strain)
Procedure: Male rats of the Donryu strain having a body weight of 150-200 g were starved for 24 hours and the effects of administration of Compound 1 and its aluminium salt (Compound 7) on the occurrence of gastric ulcers were determined, as were the effects of other known anti-inflammatory agents.
as §2
As a second method, first oral administration was effected after 24 hours starvation and a second oral administration was effected after a further 12 hours starvation. Each animal was then sacrificed, under ether anaesthesia, 6 hours after the second administration. This method was employed to observe the effect after repeated administration of the compounds of the invention.

[4] = tested on: carrageenin-induced oedema; assay: Carrageenin-oedema test in rats (anti-inflammatory activity); type: in vivo, rat (male, Wistar strain)
Procedure: Compound 1 was administered through a stomach tube, in suspension in a 0.3% by weight carboxymethylcellulose aqueous solution, in an amount of 6.25 mg/kg or 12.5 mg/kg to male rats of the Wistar strain having a body weight of 120-130 g. After 1 hour, inflammation was induced by injecting subcutaneously […] of a 1% carrageenin suspension into the plantar tissue of the right hind paw of each rat. Paw oedema was measured volumetrically,immediately before and also every hour for 5 hours after the carrageenin injection, and the response, measured as the oedema effect (E) was calculated by the following equation: […]
where Vo and VT represents the paw volumes O and T after the carrageenin injection, respectively.
The tests were also carried out on a control group of rats to which no anti-inflammatory agent had been administered. Each test was carried out on a group of six rats.
The inhibitory effect was measured by the inhibitory ratio (IR), calculated from the following equation:
IR = […] 100 (%)
where Ec represents the oedema ratio of the control rats and E represents the oedema ratio of the rats treated with Compound 1.
The inhibitory ratio was determined on administration of various amounts of Compound 1 and the results obtained 3 hours after carrageenin injection are shown in Table 1.

[5] = tested on: male rats of the Wistar strain; assay: Analgesic effect, Acetic Acid Raising Method; type: in vivo, rat (male; design: unit not given here
[6] = tested on: male rats of the Wistar strain; assay: Analgesic effect, Randall-Selitto Method; type: in vivo, rat (male
Procedure: as §1

Acute toxicity (oral) = type: in vivo; settings: in vivo; for LD50 at 168 h: rat, po
Procedure: (§3) Compound 1 was administered in the amounts shown in Table 3 to male rats of the Wistar strain having a body weight of 110-130 g. The rats were tested in groups of eight and similar tests were applied to similar groups of female rats. The compound to be tested was suspended in a 0.3% aqueous solution of carboxymethylcellulose and was administered through a stomach tube. The lethal dose 50% (LD50) and credibility limit 95% (CL) were calculated from the lethal effect by the method of Litchield and Wilcoxon [J. Pharmac. Exp. Ther., 96, 99 (1949)]; the lethal effect was expressed as X/n, in which X is the number of animals which were dead one week after administration and n is the total number of animals used in the test.

[7] = tested on: rats of the Wistar strain; assay: Acute toxicity (oral); type: in vivo; settings: one week after administration
Procedure: as §3

[8] = tested on: male rats of the Wistar strain; assay: Analgesic effect, overall (Pressure, Acetic Acid Raising and Randall-Selitto methods); type: in vivo, rat (male; settings: oral
Procedure: as §1

Solubility = type: physicochemical
[9] = 200 × 2 mg/kg P.O., Aspirin marked * (significant difference vs phenylbutazone at p = 0.01)
[10] = 50 mg/kg P.O., Compound 7 marked ** (significant difference vs phenylbutazone at p = 0.01)
[11] = 50 × 2 mg/kg P.O., vs phenylbutazone: Compound 1 * (p = 0.01), Compound 7 ** (p = 0.1), 2 mg/kg

## Cc1c(N(C)C)c(=O)n(-c2ccccc2)n1C [Aminopyrine]
[1]; 150 mg/kg orally
  Pressure method, Ratio (average): 2.02

## CC(=O)Oc1ccccc1C(=O)O [Aspirin]
Stomach [2]; 200 mg/kg P.O.
  Size of ulcerated region of stomach: 9.7 ± 1.36 mm^2
Stomach [3]; [9]
  Size of ulcerated region of stomach: 27.2 ± 3.01 mm^2

## CC(C(=O)O)c1ccc(N2CC3=C(CC=CC3)C2=O)cc1 (stereo not drawn) [Compound 1, α-[4-(1-oxo-4,7-dihydro-2-isoindolinyl)phenyl]propionic acid]
[4]; 5 mg/kg oral, 3 hours after carrageenin injection
  Inhibitory ratio: 33.2%
[4]; 10 mg/kg oral, 3 hours after carrageenin injection
  Inhibitory ratio: 57.1%
[4]; 20 mg/kg oral, 3 hours after carrageenin injection
  Inhibitory ratio: 64.7%
[4]; 40 mg/kg oral, 3 hours after carrageenin injection
  Inhibitory ratio: 69.0%
[4]; 5-40 mg/kg, 3 hours after carrageenin injection
  dose dependence of inhibitory effect (in words): increased in rough proportion to the amount of Compound 1 administered
[4]; 6.25 or 12.5 mg/kg oral
  inhibitory effect over the first 5 hours (in words): strong inhibitory effect appeared over the first 5 hours
  onset of inhibitory effect (in words): clearly appeared at the end of the first hour after carrageenin injection
[4]; 3 h, oral, rat carrageenin oedema, range printed 4.0-30.9 mg/kg, read-out: ED50 (effective dose 50%)
  ED50: 11.1 mg/kg
[4]; rat hind paw oedema
  inhibitory effect on carrageenin-induced oedema (in words): particularly strong inhibitory effect
[1]; 150 mg/kg orally
  Pressure method, Ratio (average): 1.36
[5]; 100 mg/kg orally
  Acetic Acid Raising method, a (graded response): 21.0
  Acetic Acid Raising method, b (all or none response): 7
[6]; 10 mg/kg orally
  Randall-Selitto method, Analgesic index, Inflamed foot: 1.21
  Randall-Selitto method, Analgesic index, Normal foot: 1.04
Acute toxicity (oral); oral LD50 male rat / ED50 carrageenin oedema rat, read-out: therapeutic index (LD50/ED50)
  selectivity ratio: 29.6
Acute toxicity (oral); female rats, 95% CL (250-476), read-out: LD50, Female
  LD50 at 168 h: 345 mg/kg
Acute toxicity (oral); male rats, 95% CL (238-453), read-out: LD50, Male
  LD50 at 168 h: 328 mg/kg
[7]; 180 mg/kg oral
  Lethal effect, Female (dead/total): 1/8
  Lethal effect, Male (dead/total): 0/8
[7]; 234 mg/kg oral
  Lethal effect, Female (dead/total): 2/8
  Lethal effect, Male (dead/total): 2/8
[7]; 304 mg/kg oral
  Lethal effect, Female (dead/total): 3/8
  Lethal effect, Male (dead/total): 4/8
[7]; 395 mg/kg oral
  Lethal effect, Female (dead/total): 5/8
  Lethal effect, Male (dead/total): 5/8
[7]; 514 mg/kg oral
  Lethal effect, Female (dead/total): 6/8
  Lethal effect, Male (dead/total): 6/8
[7]; 668 mg/kg oral
  Lethal effect, Female (dead/total): 8/8
  Lethal effect, Male (dead/total): 8/8
Stomach [2]; [10]
  Size of ulcerated region of stomach: 4.1 ± 0.46 mm^2
Stomach [3]; [11]
  Size of ulcerated region of stomach: 11.3 ± 2.00 mm^2
[8]
  analgesic effect (in words): weak

## CC(C(=O)O)c1ccc(N2CC3=C(CC=CC3)C2=O)cc1 (stereo not drawn) [Compound 7, Aluminium α-[4-(1-oxo-4,7-dihydro-2-isoindolinyl)phenyl]propionate]
Stomach [2]; [10]
  Size of ulcerated region of stomach: 2.4 ± 0.49 mm^2
Stomach [3]; [11]
  Size of ulcerated region of stomach: 10.3 ± 1.00 mm^2
Solubility; dimethyl sulphoxide
  solubility in dimethyl sulphoxide: slightly soluble
Solubility; most organic solvents
  solubility in most organic solvents: sparingly soluble

## CC(C)Cc1ccc(C(C)C(=O)O)cc1 (centres unmarked) [Ibuprofen]
[5]; 200 mg/kg orally
  Acetic Acid Raising method, a (graded response): 21.9
  Acetic Acid Raising method, b (all or none response): 20
[6]; 100 mg/kg orally
  Randall-Selitto method, Analgesic index, Inflamed foot: 1.20
  Randall-Selitto method, Analgesic index, Normal foot: 1.05

## COc1ccc2c(c1)c(CC(=O)O)c(C)n2C(=O)c1ccc(Cl)cc1 [Indomethacin]
Stomach [2]; 20 mg/kg P.O.
  Size of ulcerated region of stomach: 8.0 ± 1.22 mm^2
Stomach [3]; 20 × 2 mg/kg P.O.
  Size of ulcerated region of stomach: 15.3 ± 1.20 mm^2

## CC(C(=O)O)c1cccc(C(=O)c2ccccc2)c1 (centres unmarked) [Ketoprofen]
[1]; 100 mg/kg orally
  Pressure method, Ratio (average): 1.40
[5]; 100 mg/kg orally
  Acetic Acid Raising method, a (graded response): 53.8
  Acetic Acid Raising method, b (all or none response): 60
[6]; 10 mg/kg orally
  Randall-Selitto method, Analgesic index, Inflamed foot: 1.20
  Randall-Selitto method, Analgesic index, Normal foot: 1.03

## Cc1cccc(Nc2ccccc2C(=O)O)c1C [Mefenamic acid]
[5]; 150 mg/kg orally
  Acetic Acid Raising method, a (graded response): 45.4
  Acetic Acid Raising method, b (all or none response): 60

## CCCCC1C(=O)N(c2ccccc2)N(c2ccccc2)C1=O [Phenylbutazone]
[5]; 200 mg/kg orally
  Acetic Acid Raising method, a (graded response): 25.8
  Acetic Acid Raising method, b (all or none response): 20
Stomach [2]; 200 mg/kg P.O.
  Size of ulcerated region of stomach: 6.6 ± 1.31 mm^2
Stomach [3]; [9]
  Size of ulcerated region of stomach: 17.2 ± 1.93 mm^2
